Laboratory results: PubChem BioAssay AID2060332 (Molecular Pharmacology Branch, DTP, NCI, 2025)
Values joined by “and” are separate entries in the source; they are usually repeats but may differ in a detail not shown here. Equal entries are not always repeated. One block for each molecule: values may come before it.

Tested on: LG0567-F671-PDC multi-cell spheroid viability
Assay: Anticancer human tumor LG0567-F671-PDC patient-derived lung adenocarcinoma cell line growth inhibition [IpAb]
Details: for viability, T/C: stronger effect = lower value
In short: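 Multi-cell spheroids of 60% tumour cells, 25% HUVEC and 15% MSC in ultra-low-attachment U-bottom wells, treated with agents combined with ipatasertib or abemaciclib. Half-log ranges top out near clinical Cmax, or 10 microM when Cmax is unknown.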

[1] = curve of first compound, second compound 0.01 µM
[2] = curve of first compound, second compound 0.0316 µM
[3] = curve of first compound, second compound 0.1 µM
[4] = curve of first compound, second compound 0.316 µM
[5] = curve of first compound, second compound 1 µM
[6] = second compound 0.01 µM, first compound 0.0316 µM
[7] = second compound 0.01 µM, first compound 0.1 µM
[8] = second compound 0.01 µM, first compound 0.316 µM
[9] = second compound 0.01 µM, first compound 1 µM
[10] = second compound 0.01 µM, first compound 3.16 µM
[11] = second compound 0.01 µM, first compound 10 µM
[12] = second compound 0.0316 µM, first compound 0.0316 µM
[13] = second compound 0.0316 µM, first compound 0.1 µM
[14] = second compound 0.0316 µM, first compound 0.316 µM
[15] = second compound 0.0316 µM, first compound 1 µM
[16] = second compound 0.0316 µM, first compound 3.16 µM
[17] = second compound 0.0316 µM, first compound 10 µM
[18] = second compound 0.1 µM, first compound 0.0316 µM
[19] = second compound 0.1 µM, first compound 0.1 µM
[20] = second compound 0.1 µM, first compound 0.316 µM
[21] = second compound 0.1 µM, first compound 1 µM
[22] = second compound 0.1 µM, first compound 3.16 µM
[23] = second compound 0.1 µM, first compound 10 µM
[24] = second compound 0.316 µM, first compound 0.0316 µM
[25] = second compound 0.316 µM, first compound 0.1 µM
[26] = second compound 0.316 µM, first compound 0.316 µM
[27] = second compound 0.316 µM, first compound 1 µM
[28] = second compound 0.316 µM, first compound 3.16 µM
[29] = second compound 0.316 µM, first compound 10 µM
[30] = second compound 1 µM, first compound 0.0316 µM
[31] = second compound 1 µM, first compound 0.1 µM
[32] = second compound 1 µM, first compound 0.316 µM
[33] = second compound 1 µM, first compound 1 µM
[34] = second compound 1 µM, first compound 3.16 µM
[35] = second compound 1 µM, first compound 10 µM
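Further: viability read after 7 days of drug exposure.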
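Wherever viability, T/C is given: 100% = DMSO vehicle control luminescence.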

SMILES: C=CCn1c(=O)c2cnc(Nc3ccc(N4CCN(C)CC4)cc3)nc2n1-c1cccc(C(C)(C)O)n1 + CCN1CCN(Cc2ccc(Nc3ncc(F)c(-c4cc(F)c5nc(C)n(C(C)C)c5c4)n3)nc2)CC1
IC50 [1]: 800 nM
IC50 [2]: 310 nM
IC50 [3]: 518 nM
IC50 [4]: 240 nM
IC50 [5]: 359 nM
viability, T/C [6]: 95%
viability, T/C [7]: 68.1%
viability, T/C [8]: 66.8%
viability, T/C [9]: 48.4%
viability, T/C [10]: 31.9%
viability, T/C [11]: 32%
viability, T/C [12]: 94.2%
viability, T/C [13]: 52.9%
viability, T/C [14]: 54.9%
viability, T/C [15]: 48.5%
viability, T/C [16]: 36.4%
viability, T/C [17]: 23.8%
viability, T/C [18]: 64.2%
viability, T/C [19]: 50.4%
viability, T/C [20]: 51.2%
viability, T/C [21]: 51.1%
viability, T/C [22]: 35%
viability, T/C [23]: 23.8%
viability, T/C [24]: 57.8%
viability, T/C [25]: 52.9%
viability, T/C [26]: 46.9%
viability, T/C [27]: 45.6%
viability, T/C [28]: 35.8%
viability, T/C [29]: 27.9%
viability, T/C [30]: 63.8%
viability, T/C [31]: 59.8%
viability, T/C [32]: 49.2%
viability, T/C [33]: 43.9%
viability, T/C [34]: 33.9%
viability, T/C [35]: 29.4%

SMILES: C=CC(=O)N1CCN(c2nc(=O)n(-c3c(C)ccnc3C(C)C)c3nc(-c4c(O)cccc4F)c(F)cc23)C(C)C1 (configuration not stated) + CCN1CCN(Cc2ccc(Nc3ncc(F)c(-c4cc(F)c5nc(C)n(C(C)C)c5c4)n3)nc2)CC1
IC50 [1]: < 31.6 nM
IC50 [2]: < 31.6 nM
IC50 [3]: < 31.6 nM
IC50 [4]: < 31.6 nM
IC50 [5]: < 31.6 nM
viability, T/C [6]: 21.1%
viability, T/C [7]: 19.5%
viability, T/C [8]: 14.9%
viability, T/C [9]: 19.8%
viability, T/C [10]: 17.1%
viability, T/C [11]: 17.5%
viability, T/C [12]: 18.4%
viability, T/C [13]: 14.3%
viability, T/C [14]: 15.7%
viability, T/C [15]: 15.9%
viability, T/C [16]: 13.1%
viability, T/C [17]: 14%
viability, T/C [18]: 15.5%
viability, T/C [19]: 15.8%
viability, T/C [20]: 16.6%
viability, T/C [21]: 13.2%
viability, T/C [22]: 13.8%
viability, T/C [23]: 13.9%
viability, T/C [24]: 16.2%
viability, T/C [25]: 18.4%
viability, T/C [26]: 22.1%
viability, T/C [27]: 18.2%
viability, T/C [28]: 16.6%
viability, T/C [29]: 16%
viability, T/C [30]: 18.6%
viability, T/C [31]: 23%
viability, T/C [32]: 27.1%
viability, T/C [33]: 18.9%
viability, T/C [34]: 25.8%
viability, T/C [35]: 21.1%

SMILES: Cn1ncnc1[C@H]1c2n[nH]c(=O)c3cc(F)cc(c23)N[C@@H]1c1ccc(F)cc1 + CCN1CCN(Cc2ccc(Nc3ncc(F)c(-c4cc(F)c5nc(C)n(C(C)C)c5c4)n3)nc2)CC1
IC50 [1]: 71.7 nM
IC50 [2]: 18.2 nM
IC50 [3]: 11.2 nM
IC50 [4]: 22 nM
IC50 [5]: 5.45 nM
viability, T/C (second compound 0.01 µM, first compound 0.000316 µM): 94.2%
viability, T/C (second compound 0.01 µM, first compound 0.001 µM): 89.6%
viability, T/C (second compound 0.01 µM, first compound 0.00316 µM): 64.2%
viability, T/C (second compound 0.01 µM, first compound 0.01 µM): 76.7%
viability, T/C [6]: 64.9%
viability, T/C [7]: 40.9%
viability, T/C (second compound 0.0316 µM, first compound 0.000316 µM): 64%
viability, T/C (second compound 0.0316 µM, first compound 0.001 µM): 81.5%
viability, T/C (second compound 0.0316 µM, first compound 0.00316 µM): 69.3%
viability, T/C (second compound 0.0316 µM, first compound 0.01 µM): 46.1%
viability, T/C [12]: 49.8%
viability, T/C [13]: 24.7%
viability, T/C (second compound 0.1 µM, first compound 0.000316 µM): 63.2%
viability, T/C (second compound 0.1 µM, first compound 0.001 µM): 75.8%
viability, T/C (second compound 0.1 µM, first compound 0.00316 µM): 63.1%
viability, T/C (second compound 0.1 µM, first compound 0.01 µM): 52.8%
viability, T/C [18]: 29.8%
viability, T/C [19]: 30.4%
viability, T/C (second compound 0.316 µM, first compound 0.000316 µM): 63.5%
viability, T/C (second compound 0.316 µM, first compound 0.001 µM): 72.2%
viability, T/C (second compound 0.316 µM, first compound 0.00316 µM): 66.5%
viability, T/C (second compound 0.316 µM, first compound 0.01 µM): 52.1%
viability, T/C [24]: 49.2%
viability, T/C [25]: 30%
viability, T/C (second compound 1 µM, first compound 0.000316 µM): 61.9%
viability, T/C (second compound 1 µM, first compound 0.001 µM): 67.4%
viability, T/C (second compound 1 µM, first compound 0.00316 µM): 56.1%
viability, T/C (second compound 1 µM, first compound 0.01 µM): 43.3%
viability, T/C [30]: 32.8%
viability, T/C [31]: 40.3%

IC50 (curve of compound): 7020 nM and 7120 nM
SMILES: CC1(C)CCC(CN2CCN(c3ccc(C(=O)NS(=O)(=O)c4ccc(NCC5CCOCC5)c([N+](=O)[O-])c4)c(Oc4cnc5[nH]ccc5c4)c3)CC2)=C(c2ccc(Cl)cc2)C1
viability, T/C (compound 0.0316 µM): 96.3% and 101%
viability, T/C (compound 0.1 µM): 87.4% and 110%
viability, T/C (compound 0.316 µM): 86.8% and 105%
viability, T/C (compound 1 µM): 112% and 113%
viability, T/C (compound 3.16 µM): 145% and 143%
viability, T/C (compound 10 µM): 25.2% and 23%

SMILES: Cn1cnc2c(F)c(Nc3ccc(Br)cc3Cl)c(C(=O)NOCCO)cc21 + CCN1CCN(Cc2ccc(Nc3ncc(F)c(-c4cc(F)c5nc(C)n(C(C)C)c5c4)n3)nc2)CC1
IC50 [1]: 19.1 nM
IC50 [2]: 11.9 nM
IC50 [3]: < 9.49 nM
IC50 [4]: < 9.49 nM
IC50 [5]: < 9.49 nM
viability, T/C (second compound 0.01 µM, first compound 0.00949 µM): 55%
viability, T/C (second compound 0.01 µM, first compound 0.03 µM): 48%
viability, T/C (second compound 0.01 µM, first compound 0.0949 µM): 28.8%
viability, T/C (second compound 0.01 µM, first compound 0.3 µM): 22.5%
viability, T/C (second compound 0.01 µM, first compound 0.949 µM): 19.9%
viability, T/C (second compound 0.01 µM, first compound 3 µM): 13.4%
viability, T/C (second compound 0.0316 µM, first compound 0.00949 µM): 53.5%
viability, T/C (second compound 0.0316 µM, first compound 0.03 µM): 36.4%
viability, T/C (second compound 0.0316 µM, first compound 0.0949 µM): 27.9%
viability, T/C (second compound 0.0316 µM, first compound 0.3 µM): 17.3%
viability, T/C (second compound 0.0316 µM, first compound 0.949 µM): 20.2%
viability, T/C (second compound 0.0316 µM, first compound 3 µM): 13.5%
viability, T/C (second compound 0.1 µM, first compound 0.00949 µM): 47.5%
viability, T/C (second compound 0.1 µM, first compound 0.03 µM): 38.5%
viability, T/C (second compound 0.1 µM, first compound 0.0949 µM): 28%
viability, T/C (second compound 0.1 µM, first compound 0.3 µM): 17.4%
viability, T/C (second compound 0.1 µM, first compound 0.949 µM): 17%
viability, T/C (second compound 0.1 µM, first compound 3 µM): 10.6%
viability, T/C (second compound 0.316 µM, first compound 0.00949 µM): 48.8%
viability, T/C (second compound 0.316 µM, first compound 0.03 µM): 29.9%
viability, T/C (second compound 0.316 µM, first compound 0.0949 µM): 33.6%
viability, T/C (second compound 0.316 µM, first compound 0.3 µM): 24.7%
viability, T/C (second compound 0.316 µM, first compound 0.949 µM): 17.4%
viability, T/C (second compound 0.316 µM, first compound 3 µM): 11.4%
viability, T/C (second compound 1 µM, first compound 0.00949 µM): 45%
viability, T/C (second compound 1 µM, first compound 0.03 µM): 35.2%
viability, T/C (second compound 1 µM, first compound 0.0949 µM): 29.6%
viability, T/C (second compound 1 µM, first compound 0.3 µM): 27.5%
viability, T/C (second compound 1 µM, first compound 0.949 µM): 18.6%
viability, T/C (second compound 1 µM, first compound 3 µM): 11.3%
